Assay results: ChEMBL document CHEMBL5584278, “Deciphering the Selectivity of CBL-B Inhibitors Using All-Atom Molecular Dynamics and Machine Learning” (ACS Med Chem Lett, 2024)
pIC50: −log10 of the molar value.

What was measured:
[1] = Inhibition of C-CBL (unknown origin); set-up: species or system Homo sapiens
[2] = target: E3 ubiquitin-protein ligase CBL-B (Homo sapiens, UniProt Q13191); assay: Inhibition of CBL-B (unknown origin)
Homo sapiens = organism: Homo sapiens; assay: Selectivity ratio of IC50 for c-CBL (unknown origin) to IC50 for CBL-B (unknown origin)

Sequence of E3 ubiquitin-protein ligase CBL-B (Q13191 whole entry): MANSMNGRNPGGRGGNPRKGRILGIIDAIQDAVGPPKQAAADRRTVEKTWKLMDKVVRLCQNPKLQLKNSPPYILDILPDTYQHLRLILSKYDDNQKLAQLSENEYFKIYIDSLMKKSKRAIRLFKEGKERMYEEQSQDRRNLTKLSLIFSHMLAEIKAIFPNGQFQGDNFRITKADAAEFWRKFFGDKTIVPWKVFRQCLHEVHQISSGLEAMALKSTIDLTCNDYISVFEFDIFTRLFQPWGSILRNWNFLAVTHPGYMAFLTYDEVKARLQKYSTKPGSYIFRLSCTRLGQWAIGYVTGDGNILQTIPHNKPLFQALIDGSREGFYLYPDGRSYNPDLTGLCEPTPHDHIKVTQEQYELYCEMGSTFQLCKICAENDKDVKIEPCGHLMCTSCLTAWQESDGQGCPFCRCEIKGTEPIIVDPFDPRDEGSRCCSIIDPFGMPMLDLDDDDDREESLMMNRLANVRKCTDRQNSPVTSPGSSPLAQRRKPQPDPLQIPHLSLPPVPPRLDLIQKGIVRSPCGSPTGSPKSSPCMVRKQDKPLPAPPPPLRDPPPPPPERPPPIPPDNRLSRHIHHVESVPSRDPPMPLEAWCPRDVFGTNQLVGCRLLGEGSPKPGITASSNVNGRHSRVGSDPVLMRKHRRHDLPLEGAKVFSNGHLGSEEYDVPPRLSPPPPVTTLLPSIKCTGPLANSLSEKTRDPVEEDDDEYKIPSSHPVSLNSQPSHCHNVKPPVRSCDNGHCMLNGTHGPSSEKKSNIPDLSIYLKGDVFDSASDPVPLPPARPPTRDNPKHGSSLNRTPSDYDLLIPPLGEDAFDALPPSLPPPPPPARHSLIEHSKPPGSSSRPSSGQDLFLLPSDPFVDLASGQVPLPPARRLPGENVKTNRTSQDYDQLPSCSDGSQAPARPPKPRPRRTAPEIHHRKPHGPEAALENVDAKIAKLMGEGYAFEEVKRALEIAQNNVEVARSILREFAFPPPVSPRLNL

Row | Compound | pIC50 [1] | pIC50 [2] | Ratio IC50 (Homo sapiens)
1 | C[C@H](c1cc(C(F)(F)F)c2nc(-c3cccc(CC4(c5nncn5C)COC4)c3)[nH]c2c1)N1CCC2(CC2)C1 | ~5.00 | ~6.70 | 50
2 | CC1CC(c2cccc(-c3nc4cc(CN5CCC[C@H](C)C5)cc(C(F)(F)F)c4[nH]3)c2)(c2nncn2C)C1 (some centres not stated) | – | ~6.70 | –
3 | Cn1cnnc1[C@H](c1cccc(N2Cc3c(Cl)cc(CNC4(C)CCC4)cc3C2=O)c1)[C@H]1C[C@@H](F)C1 | ~5.96 | ~6.77 | 6.5
4 | Cn1cnnc1CC1(c2cccc(N3CC4=C(C(F)(F)F)C=C(CN5CCC(C)(F)CC5)CN4C3=O)c2)COC1 | ~7.22 | ~8.22 | 10
5 | COCCNCc1cc(C(F)(F)F)c2oc(-c3cccc(-c4ccc(F)cc4-c4nncn4C)c3)nc2c1 | ~5.00 | ~6.70 | 50
6 | CC1CC(c2cccc(-c3nc4c(C(F)(F)F)cc(CN5CCC[C@H](C)C5)cc4[nH]3)c2)(c2nncn2C)C1 (some centres not stated) | ~5.00 | – | 50
7 | CC1CC(c2cccc(N3Cc4c(cc(CN5CCC[C@H](C)C5)cc4C(F)(F)F)C3=O)c2)(c2nncn2C)C1 (some centres not stated) | ~7.70 | ~8.30 | 4
8 | CO[C@H]1C[C@@](c2cccc(N3Cc4c(cc(CNC5(C)CCC5)cc4C(F)F)C3=O)c2)(c2nncn2C)C1 | ~6.82 | ~7.60 | 6
9 | Cn1cnnc1C1(c2cccc(N3Cc4c(cc(CNC5(C)CCC5)cc4C(F)(F)F)C3=O)c2)CC2(CC(F)(F)C2)C1 | ~6.92 | ~7.68 | 6
10 | CC1CC(c2cccc(N3C(=O)c4cc(CNC5(C)CCC5)cc5c(F)ccc3c45)c2)(c2nncn2C)C1 (configuration not stated) | ~6.78 | ~7.78 | 10
